# Source: PubChem BioAssay AID624491 (Broad Institute, 2012)
# Tested on: D54 ERlucT glycosylation luciferase reporter, luminescence, 24 h
# Assay: N-linked glycosylation inhibitors, luciferase reporter, dose response, D54 ERlucT cells, luminescence, cherry-picks (AID 624491);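 note: signal gain reflects blocked N-linked glycosylation of a luciferase reporter; actives raise luciferase signal so AC26 marks activators of the reporter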
row,Structure (SMILES),AC26 [µM]
1,COc1ccccc1C1CC(=O)Nc2cc3c(cc21)OCCO3 (centres undefined),10.5
2,COc1ccccc1-c1cc(NC=O)c2ncc(-c3cccc(C(=O)N(C)C)c3)n2c1,4.02
3,Cc1ccc(C(=O)NCc2nnc(SCC(=O)NC(C)c3ccccc3)n2C)cc1 (centres undefined),3.98
4,Cn1c(C(=O)NC2CCCCCC2)cc2c(=O)n(C)c3ccccc3c21,4.47
5,Cc1cc([N+](=O)[O-])ccc1-c1ccc(/C=N/NC(=O)c2ccc(Br)o2)o1,4.51
6,COc1ccc(C=CC(=O)c2ccc3cc(OC)c(OC)cc3c2)cc1OC,2.86
7,CC1(C)Cc2c(c(N3CCOCC3)nc3snc(N)c23)CO1,0.502
8,COc1cccc(/C=N/NC(=O)c2ccc(N3CCCC3=O)cc2)c1,3.35
9,Cc1cc2[nH]c3ccccc3c2c(C)n1,3.67
10,CCn1c2ccccc2c2cc(Nc3cc(C)nc4ncnn34)ccc21,0.0698
11,COc1cccc(C2=NOC(C(=O)NCc3ccc(F)cc3)C2)c1 (centres undefined),1.16
12,CCOc1cc(C)nc(NCc2ccccc2)n1,14.3
13,COc1ccccc1C(=O)Nc1ccc2c(c1)nc(CCNC(=O)c1ccco1)n2C,1.55
14,O=C(NCc1cccs1)C1CCN(c2ccc(S(=O)(=O)N3CCOCC3)cc2Cl)CC1,0.646
15,O=C1CCCC2=C1C(c1ccco1)Nc1ccc(C(=O)c3ccccc3)cc1N2 (centres undefined),16.5
16,COc1cc(/C=C/C(=O)/C=C(O)/C=C/c2ccc(O)c(OC)c2)ccc1O,2.09
17,CN(CCCNC(=O)CCCOc1cc(=O)n(C)c2ccccc12)Cc1ccccc1,5.23
18,Cc1ccc(C(=O)N2C(CC(=O)Nc3ccc(Cl)cc3)C(=O)NC3CCCCC32)cc1 (centres undefined),12.6
19,COc1ccc(C(=O)N/N=C/C23CC[C@@H](O)CC2(O)CC[C@@H]2[C@@H]3CCC3(C)C(C4=CC(=O)OC4)CCC23O)cc1 (some centres undefined),5.71
20,COc1cc(C(=O)OCC(C)=O)ccc1OCc1c(C)noc1C,3.27
21,COc1cc(NC(=O)c2ccc(-c3c(C)noc3C)c3ccoc23)cc(OC)c1OC,3.77
22,OCC1OC(n2ccc3c(SCc4ccccc4)ncnc32)C(O)C1O (centres undefined),0.332
23,CCC(CC)Nc1ccc(C(CC(N)=O)NC(=O)Cc2ccc(Br)cc2)cc1[N+](=O)[O-] (centres undefined),4.13
24,COCCNC(=S)N1CCc2cc(OC)c(OC)cc2C1c1cccs1 (centres undefined),0.455
25,COC(=O)[C@@H]1C[C@H]1[C@@H](NP(=O)(c1ccccc1)c1ccccc1)c1ccccc1,3.65
26,COC(=O)Nc1nc2ccc(-c3n[nH]c(=O)c4ccccc34)cc2[nH]1,3.35
27,COc1cc(/C=C2/CCC/C(=C\c3cc(O)c(OC)c(Cl)c3)C2=O)cc(Cl)c1O,2.23

row,Structure (SMILES),AC26 [µM]
1,Cn1c(SCC(=O)c2ccc(F)cc2)ncc(C(=O)Nc2ccccc2)c1=O,4.77
2,COc1ccccc1OCC(=O)N/N=C/C=C/c1ccc([N+](=O)[O-])o1,0.432
3,CCc1ccc(N2C(=O)NC(=O)/C(=C\C=C\c3ccco3)C2=O)cc1,1.28
4,CC(C)(C)c1ccc(C(=O)O/N=C(\N)Cc2cccs2)cc1,11.8
5,CC(=O)Nc1cccc(-c2ccnc3c2CC(C(=O)Nc2ccc4c(c2)OCO4)O3)c1 (centres undefined),4.55
6,COCCOC(=O)c1[nH]c2c(c1C)C(=O)CC(c1ccco1)C2 (centres undefined),3.54
7,CCOC(=O)c1sc(Nc2nc(C)cc(C)n2)nc1C,0.949
8,Nc1cc2c3c(cccc3c1)C(=O)N(CCN1CCCC1)C2=O,0.275
9,COc1ccc(-c2oc3cc(O)c(OC)c(O)c3c(=O)c2OC)cc1O,0.246
10,O=C(/C=C/c1ccccc1)c1ccccc1,6.78
11,Cc1c(C(=O)C(=O)N2c3ccc(F)cc3CCC2C)c2ccccc2n1C (centres undefined),5.78
12,c1ccc(CNc2ncnc3c2cnn3-c2ccccc2)cc1,8.13
13,CCOC(=O)C1CCN(c2c(N3CCN(Cc4ccccc4)CC3)c(=O)c2=O)CC1,1.81
14,CCn1c(=O)cc(SCC(=O)NCCCN2CCN(c3ccc(F)cc3)CC2)c2ccccc21,9.83
15,O=C1NC(=O)N(Cc2ccco2)C(=O)/C1=C/C=C/c1ccco1,0.953
16,CC(=O)Nc1ccc(C(=O)N/N=C/c2ccccc2OCc2ccccc2)cc1,1.49
17,CCOc1ccc(S(=O)(=O)N2CCN=C2c2ccccc2)cc1,3.39
18,Clc1cccc(Cl)c1Cn1cnc2c(NCc3ccco3)ncnc21,17.3
19,CCn1c(=O)c2cc(C(=O)NCCN(C)C)sc2c2ccccc21,5.23
20,CC(=O)c1sc(Nc2cccc3ccccc23)nc1C,6.11
21,CSc1ncnc2c1ncn2CCCN[C@H](C)c1cccc2ccccc12,0.679
22,C[C@@]12C(=O)Nc3cc(Cl)ccc3C(=O)N1[C@H]1c3cc(Cl)ccc3OC[C@@H]1[C@@H]2c1ccccc1,4.04
23,Cc1ccc(-c2nn3c(C)nnc3c3ccccc23)cc1S(=O)(=O)NC(C)(C)CO,0.826
24,O=C(Nc1ccc(Cc2ccncc2)cc1)c1ccc([N+](=O)[O-])o1,1.15
25,O=C1[C@H]2[C@@H](c3ccc(F)cc3)N3C(=O)N(c4cccc(Cl)c4)C(=O)[C@@]3(Cc3ccccc3)[C@H]2C(=O)N1C1CCCCC1,0.0164
26,COc1ccccc1NC(=O)Cn1nnc(C(=O)NCc2cccs2)c1N,0.867
27,COc1cccc(N2[C@@H](CC(C)=O)c3ccc(/C=C/C(C)=O)cc3S2(=O)=O)c1,3.28
